From patent publication US6699686B1, “Modified nuclear glucocorticoid receptor, fusion protein, and DNA fragments coding for said receptor and said fusion protein” (Association pour le Development de la Recherche en …, priority 1996, dated 2004)

Molecular target: T1, Cre-LBD[GR(I747/T)] (Homo sapiens, UniProt P04150, I747T)
T1 construct: the region containing the mutated LBD of HG1 [aa 500-777]; Cre recombinase aa 1-343 (bacteriophage P1); F region of the human estrogen receptor (aa 553-595); expressed in transfected cells
T1 sequence (P04150 500-777 I747T): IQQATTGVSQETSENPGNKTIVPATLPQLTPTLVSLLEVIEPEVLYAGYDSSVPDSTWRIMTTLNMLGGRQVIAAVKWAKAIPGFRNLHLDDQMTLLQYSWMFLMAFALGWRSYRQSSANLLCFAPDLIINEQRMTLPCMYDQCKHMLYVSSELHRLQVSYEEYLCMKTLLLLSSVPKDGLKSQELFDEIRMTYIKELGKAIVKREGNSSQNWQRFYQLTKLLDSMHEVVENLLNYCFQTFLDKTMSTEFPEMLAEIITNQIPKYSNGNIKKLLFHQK
Assay: PCR test of excision between loxP sites after transient transfection of pCre-LBD[GR(I747/T)] in RXRα+/−(LNL) F9 cells
Assay type: cell-based
Conditions: ligand 10^−6 M, 72 hours, murine F9 RXRα+/−(LNL) cells
Experimental: [optionally cotransfected with 5 μg of the vector pRXRα^(LNL) for the HeLa cells] with the aid of an electroporator (Bio-Rad gene pulser), set at 200 V and 960 μF. The cells were then inoculated at 10^6 cells per 100 mm dish and treated, if necessary, with ligands.
The DNA amplifications were carried out using the “Polymerase Chain Reaction” (PCR) technique according to the protocol described by Chen and Evans (60). The primers used are: SB211 and PZ105, having respectively as nucleotide sequence 5′-[…]-3′ (SEQ ID NO: 10) and 5′-[…]-3′ (SEQ ID NO: 11). After denaturation for 8 min at 94° C., 2.5 units of Taq polymerase are added. The amplification is carried out by performing 35 cycles (30 sec. at 94° C., 30 sec. at 50° C.) followed by one cycle (30 sec. at 94° C., 30 sec. at 50° C., 5 min at 72° C.), the product of which is stored at 4° C.
The products of the reactions were separated on polyacrylamide (10%) or agarose (2.5%) gel. The DNA was visualized by UV followed by ethidium bromide staining, or by Southern blotting (42).
The products of the reaction were separated on acrylamide gel and stained with ethidium bromide.

## C[C@]12CCC(=O)C=C1CC[C@@H]1[C@@H]2[C@@H](O)C[C@@]2(C)[C@H]1CC[C@]2(O)C(=O)CO [Cortisol, cortisol]
  excision of sequences between loxP sites (191 bp PCR fragment of recombinant allele): no fragment of this size is observed
